How the values were obtained:
Format in all cases: cell-based
M1 muscarinic receptor = target: T1, M1 muscarinic receptor (Homo sapiens, UniProt P11229); assay: Functional mobilization of intracellular calcium (FLIPR), M1-CHO cells; details: for M1 Activity: M1-CHO cells, calcium mobilization (FLIPR)
T1 construct: expressed in transfected cells; host or cells: CHO (M1-CHO)
T1 sequence (P11229 1-460): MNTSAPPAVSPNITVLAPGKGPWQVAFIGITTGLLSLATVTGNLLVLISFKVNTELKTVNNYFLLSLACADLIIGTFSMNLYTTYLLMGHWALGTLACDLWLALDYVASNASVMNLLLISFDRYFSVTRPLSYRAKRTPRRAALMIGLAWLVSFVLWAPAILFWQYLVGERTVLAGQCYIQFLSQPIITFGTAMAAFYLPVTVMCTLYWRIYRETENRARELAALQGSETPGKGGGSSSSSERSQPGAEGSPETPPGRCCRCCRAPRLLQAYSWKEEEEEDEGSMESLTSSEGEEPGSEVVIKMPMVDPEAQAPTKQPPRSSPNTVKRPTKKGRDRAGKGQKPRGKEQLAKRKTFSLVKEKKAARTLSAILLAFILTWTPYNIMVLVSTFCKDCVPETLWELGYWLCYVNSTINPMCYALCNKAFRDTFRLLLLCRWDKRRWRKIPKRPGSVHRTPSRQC
Summary of the method: (§1)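 CHO cells expressing human M1–M4 receptors loaded with Fluo-3 AM or Calcium 3 dye (1 mM probenecid, pH 7.4); 0.5% DMSO final. Agonist mode: compound added directly; antagonist mode: 15 min pre-incubation or co-application, then carbachol at EC80. Fluorescence read 60 s on FLIPR; efficacy relative to carbachol maximum.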

M2 muscarinic receptor = target: T2, M2 muscarinic receptor (Homo sapiens, UniProt P08172); assay: Functional mobilization of intracellular calcium (FLIPR), M2-CHO cells; details: for M2 Activity: M2-CHO cells, calcium mobilization (FLIPR)
T2 construct: expressed in transfected cells; host or cells: CHO (M2-CHO)
T2 sequence (P08172 1-466): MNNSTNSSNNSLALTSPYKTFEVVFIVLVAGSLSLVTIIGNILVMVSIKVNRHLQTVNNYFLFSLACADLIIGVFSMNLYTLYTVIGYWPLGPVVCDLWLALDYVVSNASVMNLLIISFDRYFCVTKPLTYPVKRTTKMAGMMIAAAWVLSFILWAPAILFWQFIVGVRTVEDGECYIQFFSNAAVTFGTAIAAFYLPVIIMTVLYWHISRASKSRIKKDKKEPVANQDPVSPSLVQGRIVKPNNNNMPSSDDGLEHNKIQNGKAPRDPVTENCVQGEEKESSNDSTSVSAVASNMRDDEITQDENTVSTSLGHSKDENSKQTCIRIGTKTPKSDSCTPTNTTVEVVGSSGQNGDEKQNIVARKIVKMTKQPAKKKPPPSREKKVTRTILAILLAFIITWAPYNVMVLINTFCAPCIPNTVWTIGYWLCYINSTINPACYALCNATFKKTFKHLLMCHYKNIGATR
Summary of the method: as §1

M3 muscarinic receptor = target: T3, M3 muscarinic receptor (Homo sapiens, UniProt P20309); assay: Functional mobilization of intracellular calcium (FLIPR), M3-CHO cells; details: for M3 Activity: M3-CHO cells, calcium mobilization (FLIPR)
T3 construct: expressed in transfected cells; host or cells: CHO (M3-CHO)
Summary of the method: as §1

M4 muscarinic receptor = target: T4, M4 muscarinic receptor (Homo sapiens, UniProt P08173); assay: Functional mobilization of intracellular calcium (FLIPR), M4-CHO cells; details: for M4 Activity: M4-CHO cells, calcium mobilization (FLIPR)
T4 construct: expressed in transfected cells; host or cells: CHO (M4-CHO)
T4 sequence (P08173 1-479): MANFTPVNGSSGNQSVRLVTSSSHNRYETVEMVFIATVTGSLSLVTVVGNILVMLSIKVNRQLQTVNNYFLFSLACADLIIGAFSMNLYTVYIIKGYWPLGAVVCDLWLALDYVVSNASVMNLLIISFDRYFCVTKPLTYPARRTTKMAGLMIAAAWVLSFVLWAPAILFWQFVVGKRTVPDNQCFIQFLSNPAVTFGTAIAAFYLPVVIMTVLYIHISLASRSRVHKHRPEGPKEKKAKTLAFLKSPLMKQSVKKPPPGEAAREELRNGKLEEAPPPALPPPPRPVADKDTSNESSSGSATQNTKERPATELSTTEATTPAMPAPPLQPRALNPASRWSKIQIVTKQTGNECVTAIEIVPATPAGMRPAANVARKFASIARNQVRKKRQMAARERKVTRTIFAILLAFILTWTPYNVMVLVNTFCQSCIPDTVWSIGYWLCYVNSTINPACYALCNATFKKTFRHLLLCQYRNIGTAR
Summary of the method: as §1

[1] = 100% efficacy = maximum response obtained with the Carbachol control
[2] = 100% efficacy is the maximum response obtained with the Carbachol control

T3 sequence (P20309 whole entry): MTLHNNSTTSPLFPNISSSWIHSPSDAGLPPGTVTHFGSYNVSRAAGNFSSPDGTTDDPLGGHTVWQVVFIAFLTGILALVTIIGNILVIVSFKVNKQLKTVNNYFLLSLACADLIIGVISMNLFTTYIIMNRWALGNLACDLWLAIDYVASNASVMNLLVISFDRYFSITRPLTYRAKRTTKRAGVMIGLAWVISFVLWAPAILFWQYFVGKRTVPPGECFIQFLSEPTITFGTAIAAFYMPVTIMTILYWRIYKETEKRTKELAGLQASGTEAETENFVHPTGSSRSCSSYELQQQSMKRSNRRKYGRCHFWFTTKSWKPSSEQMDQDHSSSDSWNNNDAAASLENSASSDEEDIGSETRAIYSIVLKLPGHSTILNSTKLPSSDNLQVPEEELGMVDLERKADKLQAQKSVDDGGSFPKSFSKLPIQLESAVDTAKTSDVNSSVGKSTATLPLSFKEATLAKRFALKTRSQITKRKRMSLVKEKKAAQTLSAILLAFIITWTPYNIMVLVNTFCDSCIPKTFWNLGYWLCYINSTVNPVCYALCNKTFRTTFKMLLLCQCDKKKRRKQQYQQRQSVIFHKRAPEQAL

Structure (SMILES) | Emax (M1 muscarinic receptor; [1]) [%] | M1 Activity (M1 muscarinic receptor) | Emax (M2 muscarinic receptor; [1]) [%] | M2 Activity (M2 muscarinic receptor) | Emax (M3 muscarinic receptor; [1]) [%] | M3 Activity (M3 muscarinic receptor) | Emax (M4 muscarinic receptor; [1]) [%] | M4 Activity (M4 muscarinic receptor) | Emax (M1 muscarinic receptor; [2]) [%] | Emax (M2 muscarinic receptor; [2]) [%] | Emax (M3 muscarinic receptor; [2]) [%] | Emax (M4 muscarinic receptor; [2]) [%]
CCOC(=O)N1CCC(CN2CCC(c3cc(OC)cc(F)c3F)CC2)CC1 [Compound 177] | 25 to 100 | +++ (activity was measured to be less than 1.0 μM) | < 25 | + (activity was measured to be greater than 5.0 μM) | < 25 | + (activity was measured to be greater than 5.0 μM) | 25 to 100 | +++ (activity was measured to be less than 1.0 μM) |  |  |  | 
COc1ccccc1-c1ccc(OC)c(C2CCN([C@H]3C[C@H]4CC[C@H]3C4)CC2)c1 [Compound 13] | < 25 | + (activity was measured to be greater than 5.0 μM) | < 25 | + (activity was measured to be greater than 5.0 μM) | < 25 | + (activity was measured to be greater than 5.0 μM) | < 25 | + (activity was measured to be greater than 5.0 μM) |  |  |  | 
CCOC(=O)N1CCC(CN2CCC(c3cc(C#N)ccc3OC)CC2)CC1 [Compound 264] | 25 to 100 | +++ (activity was measured to be less than 1.0 μM) | < 25 | + (activity was measured to be greater than 5.0 μM) | < 25 | + (activity was measured to be greater than 5.0 μM) | 25 to 100 | +++ (activity was measured to be less than 1.0 μM) |  |  |  | 
Fc1cccc(-c2ccccc2C2CCN([C@H]3C[C@H]4CC[C@H]3C4)CC2)c1 [Compound 274] | < 25 | + (activity was measured to be greater than 5.0 μM) | < 25 | + (activity was measured to be greater than 5.0 μM) | < 25 | + (activity was measured to be greater than 5.0 μM) | 25 to 100 | ++ (activity was measured to be from 1.0 μM to 5.0 μM) |  |  |  | 
COc1ccc(C#CC2(O)CCCCC2)cc1C1CCN([C@@H]2C[C@H]3CC[C@H]2C3)CC1 [Compound 377] |  | + (activity was measured to be greater than 5.0 μM) |  | + (activity was measured to be greater than 5.0 μM) |  | + (activity was measured to be greater than 5.0 μM) |  | +++ (activity was measured to be less than 1.0 μM) | < 25 | < 25 | < 25 | 25 to 100
COc1ccc(-c2ccc(C(C)=O)cc2)cc1C1CCN([C@H]2C[C@H]3CC[C@H]2C3)CC1 [Compound 7] | < 25 | + (activity was measured to be greater than 5.0 μM) | < 25 | + (activity was measured to be greater than 5.0 μM) | < 25 | + (activity was measured to be greater than 5.0 μM) | 25 to 100 | ++ (activity was measured to be from 1.0 μM to 5.0 μM) |  |  |  | 
COCCOc1ccccc1C1CCN([C@H]2C[C@H]3CC[C@H]2C3)CC1 [Compound 111] | 25 to 100 | ++ (activity was measured to be from 1.0 μM to 5.0 μM) | 25 to 100 | + (activity was measured to be greater than 5.0 μM) | < 25 | + (activity was measured to be greater than 5.0 μM) | 25 to 100 | +++ (activity was measured to be less than 1.0 μM) |  |  |  | 
COc1ccc(-c2ccc(C#N)cc2)cc1C1CCN(C2CC3CCC(C3)C2)CC1 (stereo not drawn) [Compound 82] | 25 to 100 | + (activity was measured to be greater than 5.0 μM) | < 25 | + (activity was measured to be greater than 5.0 μM) | < 25 | + (activity was measured to be greater than 5.0 μM) | 25 to 100 | + (activity was measured to be greater than 5.0 μM) |  |  |  | 
COc1ccc(C#N)cc1C1CCN([C@H]2C[C@H]3CC[C@H]2C3)CC1 [Compound 250] | 25 to 100 | ++ (activity was measured to be from 1.0 μM to 5.0 μM) | < 25 | + (activity was measured to be greater than 5.0 μM) | < 25 | + (activity was measured to be greater than 5.0 μM) | 25 to 100 | +++ (activity was measured to be less than 1.0 μM) |  |  |  | 
COc1ccc(C#CCC(C)C)cc1C1CCN([C@H]2C[C@H]3CC[C@H]2C3)CC1 [Compound 223] | < 25 | + (activity was measured to be greater than 5.0 μM) | < 25 | + (activity was measured to be greater than 5.0 μM) | < 25 | + (activity was measured to be greater than 5.0 μM) | 25 to 100 | + (activity was measured to be greater than 5.0 μM) |  |  |  | 
COc1ccc(-c2ccc(F)cc2)cc1C1CCN([C@H]2C[C@H]3CC[C@H]2C3)CC1 [Compound 267] | 25 to 100 | + (activity was measured to be greater than 5.0 μM) | < 25 | + (activity was measured to be greater than 5.0 μM) | < 25 | + (activity was measured to be greater than 5.0 μM) | 25 to 100 | + (activity was measured to be greater than 5.0 μM) |  |  |  | 
COc1ccc(-c2ccc(S(C)(=O)=O)cc2)cc1C1CCN(C2CCCCC2)CC1 [Compound 268] | 25 to 100 | + (activity was measured to be greater than 5.0 μM) | 25 to 100 | + (activity was measured to be greater than 5.0 μM) | < 25 | + (activity was measured to be greater than 5.0 μM) | 25 to 100 | ++ (activity was measured to be from 1.0 μM to 5.0 μM) |  |  |  | 
